We go through 2 molecules from patent US12178885B2, “Method for mediating targeted delivery of a composition to the brain of a subject in need thereof” (Fudan University, priority 2018, dated 2024).

Molecules are shown by their SMILES. Peptide text beside a SMILES is read from it.

Data set [1] deals with SP antibody. Put plainly: competition ELISA for binding of SP antibody to SP fixed on 96-well plate. Conditions: without plasma incubation. The method, then: The specific operation was as follows: 0.1 μg SP-PEG-DSPE was added to each well of ELISA plate, left overnight at room temperature, washed with PBS for 3 times, sealed with 3% BSA for 1 h, and the BSA solution was sucked off Added SP antibody, incubated at 37° C. for 1 h, washed with PBS for three times, added liposome incubated with serum or PBS in advance and diluted in gradient, incubated at 37° C. for 1 h, washed with PBS for three times, added corresponding horseradish peroxidase labeled secondary antibody, reacted with TMB chromogenic solution for 3-15 min after 1 h, stopped the reaction with 2 M H2SO4, and measured its absorbance value at 450 nm wavelength.

Data set [2] relates to neural cell line PC12. Conditions: gradient concentration of SP co-cultured with PC12. An excerpt:
Safety evaluation: The gradient concentration of SP was co-cultured with nerve cell line PC12 to evaluate its cytotoxicity in vitro. At the same time, the heart, liver, spleen, lung and kidney tissues of mice in the pharmacodynamic test of orthotopic tumor were dissected and fixed in PBS solution of 4% paraformaldehyde, paraffin-embedded sections were made, stained with HE, observed and photographed under a microscope. the experimental results are shown in FIG. 10.

In data set [3] the test system is orthotopic U87 glioma. Nature of the data set: anti-glioma efficacy: median survival time of orthotopic tumor model mice. The class given is in vivo, nude mice. Conditions: tail vein, adriamycin 2 mg/kg per injection, days 7, 9, 11, 13, 15; saline group 27 days. The procedure: By injecting SP modified delivery system, unmodified polypeptide delivery system, free drug and normal saline into nude mice bearing orthotopic U87 glioma model via tail vein, the anti-tumor effect of SP modified delivery system in vivo is evaluated with the median survival time, apoptosis of tumor tissue and neovascularization density as indicators.
Establishment of glioma model in nude mice: Took U87 cells in logarithmic growth phase, digested and counted the cells, suspended them with appropriate amount of PBS buffer, inoculated 6×10^5 cells (dispersed in 5 μL PBS buffer) to each nude mouse. The nude mice was anesthetized with 7% chloral hydrate before the experiment, fixed with a brain stereotactic instrument, and inoculated the suspended cells to the striatum (i.e. 0.6 mm forward, 1.8 mm to the right, and 3 mm deep of the anterior fontanelle). Regularly observed the state of nude mice after operation.
Nude mice with orthotopic brain tumor model were randomly divided into 4 groups (n=13), and their body weight was recorded on the 7th, 9th, 11th, 13th and 15th day, respectively.

Consider `CC[C@H](C)[C@H](NC(=O)[C@H](C)NC(=O)CNC(=O)[C@H](CCCCN)NC(=O)[C@H](CC(N)=O)NC(=O)[C@H](CO)NC(=O)CN)C(=O)N[C@H](C(=O)NCC(=O)N[C@@H](CC(C)C)C(=O)N[C@@H](CCSC)C(N)=O)[C@@H](C)CC` [SP] (H-GSNKGAIIGLM-NH2), for which the “competition for interaction between SP and antibody” value in data set [1] is “can compete for the interaction between SP and antibody”. Besides, the cytotoxicity result in data set [2] was “did not show cytotoxicity”. `COc1cccc2c1C(=O)c1c(O)c3c(c(O)c1C2=O)C[C@@](O)(C(=O)CO)C[C@@H]3O[C@H]1C[C@H](N)[C@H](O)[C@H](C)O1` [DOX, adriamycin]: in data set [3], the median survival time is 31 days.
